# Test results taken from patent US20240317721A1, “PYRAZOLYL DERIVATIVES AS INHIBITORS OF THE KRAS MUTANT PROTEIN” (NOVARTIS AG, priority 2021, published 2024).
# Biological target: KRasG12C (M1-K169, biotinylated on the N-terminus) (Homo sapiens (Human), UniProt P01116, G12C)
# Experiment: Covalent competition assay: scintillation proximity assay (SPA) quantifying covalent modification of KRASG12C
# Format: binding
# Details: competition with radiolabeled covalent probe (Compound B/Compound A), 2 hours incubation, 10 nM KRasG12C
# Procedure, shortened: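 Test compounds compete with a radiolabeled covalent probe for modification of N-terminally biotinylated KRasG12C(M1-K169):GDP, final 10 nM protein, 25 nM radio-ligand, 475 nM unlabelled ligand, 2 h with agitation in 20 mM Tris-HCl pH 7.5, 150 mM NaCl, 0.1 mM MgCl2, 0.01% Tween-20.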
row,SMILES,IC50 [µM]
1,"C=CC(=O)N1CC2(CC(n3nc(N4CC[C@@H](CN5CCN(C6COC6)CC5)CC4(C)C)c(-c4c(Cl)ccc5[nH]ncc45)c3C)C2)C1 (single isomer, unassigned) [Example 255a]",3.3
2,"Cc1cc2[nH]ncc2c(-c2c(N3CCN(C4COC4)CC34CCC4)nn(C3CC4(C3)CN(C(=O)[C@@H]3CO3)C4)c2C)c1Cl [Example 139, (S)-(6-(4-(5-chloro-6-methyl-1H-indazol-4-yl)-5-methyl-3-(8-(oxetan-3-yl)-5,8-diazaspiro[3.5]nonan-5-yl)-1H-pyrazol-1-yl)-2-azaspiro[3.3]heptan-2-yl)(oxiran-2-yl)methanone]",0.45
3,"C=CC(=O)N1CC2(CC(n3nc(N4CC[C@@H](CN5CCOC6CS(=O)(=O)CC65)CC4(C)C)c(-c4c(Cl)c(Cl)cc5[nH]ncc45)c3C)C2)C1 (single isomer, unassigned) [Example 265a, 1-(6-(4-(5,6-dichloro-1H-indazol-4-yl)-3-((R)-4-(((4aR*,7aS*)-6,6-dioxidohexahydro-4H-thieno[3,4-b][1,4]oxazin-4-yl)methyl)-2,2-dimethylpiperidin-1-yl)-5-methyl-1H-pyrazol-1-yl)-2-azaspiro[3.3]heptan-2-yl)prop-2-en-1-one]",2.9
4,"C=CC(=O)N1CC2(CC(n3nc(N4CCC(N5CCOCC5)CC45CCC5)c(-c4c(Cl)c(C)cc5[nH]ncc45)c3C)C2)C1 (single isomer, unassigned) [Example 63b, 1-(6-(4-(5-chloro-6-methyl-1H-indazol-4-yl)-5-methyl-3-(8-morpholino-5-azaspiro[3.5]nonan-5-yl)-1H-pyrazol-1-yl)-2-azaspiro[3.3]heptan-2-yl)prop-2-en-1-one]",3.1
5,"CC[C@@]1(C)CN(C[C@@H]2COCCO2)CCN1c1nn(C2CC3(C2)CN(C(=O)/C=C/COC)C3)c(C)c1-c1c(Cl)c(C)cc2[nH]ncc12 (single isomer, unassigned) [Example 120b]",0.14
6,"C=CC(=O)N1CC2(CC(n3nc(N4CC[C@@H](CN5CCOCC5)CC4(C)C)c(-c4c(C)c(Cl)cc5[nH]ncc45)c3C)C2)C1 (single isomer, unassigned) [Example 233b]",0.02
7,"C=CC(=O)N1CC2(CC(n3nc(N4CC[C@@H](CN5CCN6C[C@@H](O)C[C@@H]6C5)CC4(C)C)c(-c4c(Cl)c(Cl)cc5[nH]ncc45)c3C)C2)C1 (single isomer, unassigned) [Example 287b]",0.009
8,"C=CC(=O)N1CC2(CC(n3nc(N4CCN(C5CCOCC5)CC4(C)C)c(-c4c(Cl)c(Cl)cc5[nH]ncc45)c3C)C2)C1 (single isomer, unassigned) [Example 140a, 1-(6-(4-(5,6-dichloro-1H-indazol-4-yl)-3-(2,2-dimethyl-4-(tetrahydro-2H-pyran-4-yl)piperazin-1-yl)-5-methyl-1H-pyrazol-1-yl)-2-azaspiro[3.3]heptan-2-yl)prop-2-en-1-one]",0.971
9,"C=CC(=O)N1CC2(CC(n3nc(N4CC[C@@H](CN5CC6(C5)CN(C)C(=O)O6)CC4(C)C)c(-c4c(Cl)c(Cl)cc5[nH]ncc45)c3C)C2)C1 (single isomer, unassigned) [Example 284b]",0.008
10,"C=CC(=O)N1CC2(CC(n3nc(N4CC[C@@H](CN5CCN6C(=O)OCC6C5)CC4(C)C)c(-c4c(Cl)c(Cl)cc5[nH]ncc45)c3C)C2)C1 (single isomer, unassigned) [Example 312b]",0.009
11,"C=CC(=O)N1CC2(CC(n3nc(N4C5CCC4CN(C(C)=O)C5)c(-c4c(Cl)c(C)cc5[nH]ncc45)c3C)C2)C1 (single isomer, unassigned) [Example 57a, 1-(6-(3-(3-acetyl-3,8-diazabicyclo[3.2.1]octan-8-yl)-4-(5-chloro-6-methyl-1H-indazol-4-yl)-5-methyl-1H-pyrazol-1-yl)-2-azaspiro[3.3]heptan-2-yl)prop-2-en-1-one]",34.7
12,"C=CC(=O)N1CC2(CC(n3nc(N4CCN(C[C@@H]5COCCO5)C[C@]4(C)COC)c(-c4c(Cl)c(C)cc5[nH]ncc45)c3C)C2)C1 (single isomer, unassigned) [Example 181b]",0.008
13,"C=CC(=O)N1CC2(CC(n3nc(N4CC[C@@H](CN5CC6(O)CC5C6)CC4(C)C)c(-c4c(Cl)c(Cl)cc5[nH]ncc45)c3C)C2)C1 (single isomer, unassigned) [Example 293b]",0.01
14,"C=CC(=O)N1CC2(CC(n3nc(N4CC[C@@H](CN5CCN6C[C@@H](O)C[C@@H]6C5)CC4(C)C)c(-c4c(Cl)c(Cl)cc5[nH]ncc45)c3C)C2)C1 (single isomer, unassigned) [Example 287a]",0.307
15,"C=CC(=O)N1CC2(CC(n3nc(N4CC[C@@H](CN5CCN6C(=O)OCC6C5)CC4(C)C)c(-c4c(Cl)c(Cl)cc5[nH]ncc45)c3C)C2)C1 (single isomer, unassigned) [Example 312a]",0.831
16,"C=CC(=O)N1CC2(CC(n3nc(N4CC[C@@H](CN5CCN(C6COC6)CC5)CC4(C)C)c(-c4c(C)c(Cl)cc5[nH]ncc45)c3C)C2)C1 (single isomer, unassigned) [Example 244a]",1.4
17,"C=CC(=O)N1CC2(CC(n3nc(N4CCN(C5CCOCC5)C[C@@]4(C)C(F)F)c(-c4c(Cl)c(Cl)cc5[nH]ncc45)c3C)C2)C1 (single isomer, unassigned) [Example 106b]",0.014
18,"C=CC(=O)N1CC2(CC(n3nc(N4CCN(C[C@@H]5COCCO5)C[C@]4(C)CC)c(-c4c(Cl)c(C)cc5[nH]ncc45)c3C)C2)C1C (single isomer, unassigned) [Example 199b]",0.037
19,"C=CC(=O)N1CC2(CC(n3nc(N4CCN(C5COC5)C[C@]4(C)CC)c(-c4c(Cl)c(Cl)cc5[nH]ncc45)c3C)C2)C1 (single isomer, unassigned) [Example 155a]",4

# More lines, now with the values ahead:
row,IC50 [µM],SMILES
1,> 15,"C=CC(=O)N1CC2(CC(n3nc(N4CCN(CC(F)(F)F)CC4(C)C)c(-c4c(Cl)c(C)cc5[nH]ncc45)c3C)C2)C1 (single isomer, unassigned) [Example 68a, 1-(6-(4-(5-chloro-6-methyl-1H-indazol-4-yl)-3-(2,2-dimethyl-4-(2,2,2-trifluoroethyl)piperazin-1-yl)-5-methyl-1H-pyrazol-1-yl)-2-azaspiro[3.3]heptan-2-yl)prop-2-en-1-one]"
2,> 5,"C=CC(=O)N1CC2(CC(n3nc(N4CC(=O)N(C)CC45CCC5)c(-c4c(Cl)c(C)cc5[nH]ncc45)c3C)C2)C1 (single isomer, unassigned) [Example 65a, 5-(1-(2-acryloyl-2-azaspiro[3.3]heptan-6-yl)-4-(5-chloro-6-methyl-1H-indazol-4-yl)-5-methyl-1H-pyrazol-3-yl)-8-methyl-5,8-diazaspiro[3.5]nonan-7-one]"
3,0.013,"C=CC(=O)N1CC2(CC(n3nc(N4CCC5(CN(C6COC6)C5)CC4(C)C)c(-c4c(Cl)c(C)cc5[nH]ncc45)c3C)C2)C1 (single isomer, unassigned) [Example 91b, 1-(6-(4-(5-chloro-6-methyl-1H-indazol-4-yl)-3-(6,6-dimethyl-2-(oxetan-3-yl)-2,7-diazaspiro[3.5]nonan-7-yl)-5-methyl-1H-pyrazol-1-yl)-2-azaspiro[3.3]heptan-2-yl)prop-2-en-1-one]"
4,> 5,"C=CC(=O)N1CC2(CC(n3nc(N4CCN(C5COC5)CC45CCOC5)c(-c4c(Cl)c(C)cc5[nH]ncc45)c3C)C2)C1 (centres unmarked) [Example 141a, 1-(6-(4-(5-chloro-6-methyl-1H-indazol-4-yl)-5-methyl-3-(9-(oxetan-3-yl)-2-oxa-6,9-diazaspiro[4.5]decan-6-yl)-1H-pyrazol-1-yl)-2-azaspiro[3.3]heptan-2-yl)prop-2-en-1-one]"
5,1,"C=CC(=O)N1CC2(CC(n3nc(N4C[C@@H]5C[C@H]4CN5C(C)=O)c(-c4c(Cl)c(C)cc5[nH]ncc45)c3C)C2)C1 [Example 6, 1-(6-(3-((1S,4S)-5-acetyl-2,5-diazabicyclo[2.2.1]heptan-2-yl)-4-(5-chloro-6-methyl-1H-indazol-4-yl)-5-methyl-1H-pyrazol-1-yl)-2-azaspiro[3.3]heptan-2-yl)prop-2-en-1-one]"
6,0.064,"C=CC(=O)N1CC2(CC(n3nc(N4CCC5(CN(C)CCO5)CC4(C)C)c(-c4c(Cl)c(C)cc5[nH]ncc45)c3C)C2)C1 (single isomer, unassigned) [Example 208a, 1-(6-(4-(5-chloro-6-methyl-1H-indazol-4-yl)-5-methyl-3-(4,8,8-trimethyl-1-oxa-4,9-diazaspiro[5.5]undecan-9-yl)-1H-pyrazol-1-yl)-2-azaspiro[3.3]heptan-2-yl)prop-2-en-1-one]"
7,2.2,"C=CC(=O)N1CC2(CC(n3nc(N4C[C@H]5C[C@@H]4CN5C(C)=O)c(-c4c(Cl)c(C)cc5[nH]ncc45)c3C)C2)C1 [Example 5, 1-(6-(3-((1R,4R)-5-acetyl-2,5-diazabicyclo[2.2.1]heptan-2-yl)-4-(5-chloro-6-methyl-1H-indazol-4-yl)-5-methyl-1H-pyrazol-1-yl)-2-azaspiro[3.3]heptan-2-yl)prop-2-en-1-one]"
8,0.008,"C=CC(=O)N1CC2(CC(n3nc(N4CCN(C5COC5)C[C@]4(C)COC)c(-c4c(Cl)c(C)cc5[nH]ncc45)c3C)C2)C1 (single isomer, unassigned) [Example 147a]"
9,4.5,"C=CC(=O)N1CC2(CC(n3nc(N4CCN(C(C)(C)CO)CC45CCC5)c(-c4c(Cl)c(C)cc5[nH]ncc45)c3C)C2)C1 (single isomer, unassigned) [Example 190a, 1-(6-(4-(5-Chloro-6-methyl-1H-indazol-4-yl)-3-(8-(1-hydroxy-2-methylpropan-2-yl)-5,8-diazaspiro[3.5]nonan-5-yl)-5-methyl-1H-pyrazol-1-yl)-2-azaspiro[3.3]heptan-2-yl)prop-2-en-1-one]"
10,0.467,"C=CC(=O)N1CC2(CC(n3nc(N4CCCC4(C)C)c(-c4c(Cl)c(C)cc5[nH]ncc45)c3C)C2)C1 (single isomer, unassigned) [Example 88b, 1-(6-(4-(5-chloro-6-methyl-1H-indazol-4-yl)-3-(2,2-dimethylpyrrolidin-1-yl)-5-methyl-1H-pyrazol-1-yl)-2-azaspiro[3.3]heptan-2-yl)prop-2-en-1-one]"
